Assay results taken from patent EP0209275B1, “Benz-trisubstituted 2-aminotetralins” (SMITHKLINE BECKMAN CORPORATION, priority 1985, dated 1987).
Where two headings read alike, the source gives them in different places.

Experiments:
D2 receptors = target: T1, D2 receptors (Bos taurus, UniProt P20288); test: D2 activity - competition for 3H-spiroperidol binding in bovine anterior pituitary membranes; settings: for Kb: competition with 3H-spiroperidol (approximately .25 nM), bovine anterior pituitary membranes, figure in parentheses = number of tests, read-out: D2 (KBind, KB); for D2 to D1 ratios: selectivity ratio from the D1 and D2 binding data of Tables I and II, n to 1 = D2 selective, 1 to n = D1 selective
T1 construct: homogenized and washed membrane preparations from bovine anterior pituitary; from tissue; host or cells: bovine anterior pituitary membranes
T1 sequence (P20288 whole entry): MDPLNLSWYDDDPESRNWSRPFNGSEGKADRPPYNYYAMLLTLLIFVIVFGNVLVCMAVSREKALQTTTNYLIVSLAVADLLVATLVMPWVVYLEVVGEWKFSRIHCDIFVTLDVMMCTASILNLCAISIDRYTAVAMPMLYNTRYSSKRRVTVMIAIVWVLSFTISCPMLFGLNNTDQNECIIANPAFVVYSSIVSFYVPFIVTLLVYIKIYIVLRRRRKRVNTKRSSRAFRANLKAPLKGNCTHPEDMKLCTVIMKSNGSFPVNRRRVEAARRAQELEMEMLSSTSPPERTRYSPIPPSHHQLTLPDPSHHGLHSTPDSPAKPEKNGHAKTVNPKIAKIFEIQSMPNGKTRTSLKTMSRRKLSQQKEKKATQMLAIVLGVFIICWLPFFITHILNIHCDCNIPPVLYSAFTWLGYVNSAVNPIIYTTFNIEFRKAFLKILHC
Procedure: A) D2 Activity - Competition for ^3H-Spiroperidol in Bovine Anterior Pituitary Tissue. Test Procedure
The assay was performed using homogenized and washed membrane preparations from bovine anterior pituitary. Incubation proceeded for 20 minutes at 37° in 50 mM Tris-HCI, pH 7.4, containing 10 mM magnesium sulfate, 2 mM ethylenediamine tetra-acetic acid and 0.1 % ascorbate. The membrane- bound radioactivity was trapped by rapid filtration over glass fiber (GF/C) filters. In each experiment, the amount of ^3H-spiroperidol bound was determined in the absence (total) and presence (non-specific) of 10^-6M (+)-butaclamol, the difference yielding specific ^3H-spiroperidol binding. The ability of each compound to compete with ^3H-spiroperidol (approximately .25 nM) was tested at concentrations of 10-^7 and 10-^5.

D1 receptors = target: T2, D1 receptors (Rattus norvegicus, UniProt P18901); test: D1 activity - competition for 3H-fenoldopam binding in rat striatum (caudate) membranes
T2 construct: homogenized and washed membrane preparations from rat caudate nuclei; from tissue; host or cells: rat caudate nuclei (striatum) membranes
T2 sequence (P18901 whole entry): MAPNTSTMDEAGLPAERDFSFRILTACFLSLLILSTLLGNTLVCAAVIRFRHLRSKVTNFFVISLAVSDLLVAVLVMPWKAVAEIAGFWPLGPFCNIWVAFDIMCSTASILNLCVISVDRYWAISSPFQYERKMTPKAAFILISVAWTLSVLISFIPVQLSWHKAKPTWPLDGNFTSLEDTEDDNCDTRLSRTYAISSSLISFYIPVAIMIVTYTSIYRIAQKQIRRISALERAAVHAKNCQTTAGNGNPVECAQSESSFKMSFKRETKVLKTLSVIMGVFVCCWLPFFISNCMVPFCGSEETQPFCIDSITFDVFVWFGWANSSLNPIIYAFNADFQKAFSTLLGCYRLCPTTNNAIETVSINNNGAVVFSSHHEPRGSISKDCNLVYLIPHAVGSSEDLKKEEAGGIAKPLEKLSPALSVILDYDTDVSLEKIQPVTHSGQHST
Procedure: B) D1 Activity - Competition for ^3H-Fenoldopam in Rat Striatum Tissue. Test Procedure
The assay was performed using homogenized and washed membrane preparations from rat caudate nuclei. Tissues were preincubated for 15 min at 37° in 50 mM Tris-HCI, pH 7.4, 10 mM magnesium sulfate, 2 mM ethylenediamine tetra-acetic acid and 0.1 % ascorbate. The binding assay was then carried out in the above buffer also containing 10 µm pargyline, ^3H-fenoldopam and test compounds. The membrane- bound radioactivity was trapped by rapid filtration over glass fiber (GF/C) filters. In each experiment the amount of ^3H-fenoldopam bound was determined in the absence (total) and presence (non-specific) of 10^-6M (+)-butaclamol, the difference yielding specific ^3H-fenoldopam binding. The ability of each compound to compete with ^3H-fenoldopam (approximately 2.0 nM) was tested at concentrations of 10-^7 and 10^-6M.

a2 = test: Clonidine binding protocol (a2 activity)
rabbit ear artery = test: Standard rabbit ear artery protocol for pre-junctional dopaminergic activity; settings: ED50 for Compound D
[1] = test system: spontaneous hypertensive rat; test: Natriuretic activity in the spontaneous hypertensive rat protocol; assay type: in vivo; settings: at a hypotensive dose (Compound G: 3.12 mg/kg i.p.)
[2] = competition with 3H-fenoldopam (approximately 2.0 nM), rat caudate membranes, figure in parentheses = number of tests, read-out: D1 (KBind, KB)

With `Oc1ccc(CCNC2CCc3cc(O)c(O)c(Cl)c3C2)cc1` (stereo not shown) [B, 8-Chloro-6,7-dihydroxy-2-(4-hydroxyphenethylamino)tetralin] as the molecule, how does the Kb (D2 receptors) read?
Its Kb is 405 nM.

What about the Kb (D1 receptors; [2]) of the same molecule?
Its Kb is 1450 nM.

What does the source list for `NC1CCc2c(cc(O)c(O)c2Cl)C1` (stereo not shown) [Compound F, 5-Chloro-6,7-dihydroxy-2-aminotetralin]?
Kb (D2 receptors): 470 nM; Kb (D1 receptors; [2]): 640 nM; a2 activity (a2): demonstrated a2 activity; EC50 (rabbit ear artery): 50 nM

With `NC1CCc2cc(F)c(O)cc2C1` (stereo not shown) [L, reference compound] as the molecule, how does the Kb (D2 receptors) read?
Its Kb is 660 nM.

What about the Kb (D1 receptors; [2]) of the same molecule?
The Kb was 370 nM.

Which results are given for `NC1CCc2c(cc(O)c(O)c2F)C1` (stereo not shown) [Compound D, 5-Fluoro-6,7-dihydroxy-2-aminotetralin]?
Kb (D2 receptors): 520 nM; D2 to D1 ratios (D2 receptors): 1 to 7; Kb (D1 receptors; [2]): 72 nM; a2 activity (a2): demonstrated a2 activity; EC50 (rabbit ear artery): 2.14 nM

Which Kb (D2 receptors) does the source give for `CCCN(CCC)C1CCc2cc(Cl)c(O)cc2C1` (stereo not shown) [M, reference compound] here?
The Kb was 1630 nM.

And the Kb (D1 receptors; [2])?
Its Kb is 4710 nM.

For `CCCN(CCc1ccc(O)cc1)C1CCc2cc(O)c(O)c(Cl)c2C1` (stereo not shown) [A, 8-Chloro-6,7-dihydroxy-2-[N-(n-propyl)-N-(4-hydroxyphenethyl)-amino] tetralin], which Kb (D2 receptors) is on record?
Its Kb is 33 nM.

What about the Kb (D1 receptors; [2]) of the same molecule?
The Kb was 270 nM.

With `NC1CCc2c(ccc(O)c2Cl)C1` (stereo not shown) [O, reference compound] as the molecule, how does the Kb (D2 receptors) read?
The Kb was 11600 nM.

What about the Kb (D1 receptors; [2]) of the same molecule?
Its Kb is over 10000 nM.

For `NC1CCc2cc(O)c(O)c(F)c2C1` (stereo not shown) [Compound E, 8-Fluoro-6,7-dihydroxy-2-aminotetralin], which Kb (D2 receptors) is on record?
The Kb was 1270 nM.

What about the “D2 to D1 ratios” value (D2 receptors) of the same molecule?
Its value is 1 to 27.

And the Kb (D1 receptors; [2])?
The Kb was 62 nM.

And the a2 activity (a2)?
Its a2 activity is “demonstrated a2 activity”.

What about the EC50 (rabbit ear artery) of the same molecule?
Its EC50 is 5 nM.

`NC1CCc2cc(O)c(Cl)cc2C1` (stereo not shown) [N, reference compound] was tested. Which Kb (D2 receptors) did it give?
Its Kb is 4470 nM.

And the Kb (D1 receptors; [2])?
Its Kb is 1970 nM.

What does the source list for `CCCN(CCC)C1CCc2cc(O)c(O)c(Cl)c2C1` (stereo not shown) [C, 8-Chloro-6,7-dihydroxy-2-di-n-propyl aminotetralin]?
Kb (D2 receptors): 240 nM; Kb (D1 receptors; [2]): 620 nM

For `NC1CCc2cc(O)c(O)c(Cl)c2C1` (stereo not shown) [Compound G, 8-Chloro-6,7-dihydroxy-2-aminotetralin], which Kb (D2 receptors) is on record?
The Kb was 3160 nM.

What about the “D2 to D1 ratios” value (D2 receptors) of the same molecule?
Its value is 1 to 80.

What about the Kb (D1 receptors) of the same molecule?
Its Kb is 43 nM.

What about the natriuretic activity [1] of the same molecule?
Its natriuretic activity is “potent natriuretic activity”.

What about the a2 activity (a2) of the same molecule?
The a2 activity was “demonstrated a2 activity”.

And the EC50 (rabbit ear artery)?
The EC50 was 513 nM.

Which results are given for `NC1CCc2cc(O)c(O)cc2C1` (stereo not shown) [ADTN, 6,7-Dihydroxy-2-aminotetralin, reference compound]?
D2 to D1 ratios (D2 receptors): 1 to 3; natriuretic activity [1]: inactive; a2 activity (a2): demonstrated a2 activity
